≈ marks a conversion by molar mass, not a printed value.
Experiments:
Glutamate racemase = target: T1, Glutamate racemase (Enterococcus faecalis (strain ATCC 700802 / V583), UniProt Q836J0); test: Inhibition of Enterococcus faecalis MurI
T1 sequence (Q836J0 whole entry): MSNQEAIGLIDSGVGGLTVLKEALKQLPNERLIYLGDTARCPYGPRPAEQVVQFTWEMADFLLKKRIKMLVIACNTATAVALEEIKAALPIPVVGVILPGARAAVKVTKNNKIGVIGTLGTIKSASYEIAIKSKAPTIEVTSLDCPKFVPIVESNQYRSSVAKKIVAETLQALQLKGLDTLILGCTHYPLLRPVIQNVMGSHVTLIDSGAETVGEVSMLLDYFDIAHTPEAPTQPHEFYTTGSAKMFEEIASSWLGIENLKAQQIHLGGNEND

[1] = Inhibition of Enterococcus faecium MurI
[2] = Inhibition of Staphylococcus aureus MurI
[3] = Solubility by nephelometry; type: physicochemical
Enterococcus faecalis = test: Antibacterial activity against Enterococcus faecalis; type: functional
Enterococcus faecium = test: Antibacterial activity against Enterococcus faecium; type: functional
Staphylococcus aureus = test: Antibacterial activity against Staphylococcus aureus; type: functional

Row | Structure (SMILES) | IC50 (Glutamate racemase) [µM] | IC50 [1] [µM] | IC50 [2] [µM] | solubility kinetic [3] [µM] | MIC (Enterococcus faecalis) [µg/mL] | MIC (Enterococcus faecium) [µg/mL] | MIC (Staphylococcus aureus) [µg/mL]
1 | CCCCSc1nc(N)c2ncn(Cc3cc([N+](=O)[O-])ccc3OC)c2n1 | 1.4 | 2.5 | > 400 | 25 (≈ 9.71 µg/mL) | 16 (≈ 41.2 µM) | 16 (≈ 41.2 µM) | 16 (≈ 41.2 µM)
2 | CCCCSc1nc(N)c2ncn(Cc3cccc([N+](=O)[O-])c3)c2n1 | 9.4 | 17.7 | > 400 | 42 (≈ 15.1 µg/mL) | 16 (≈ 44.6 µM) | 16 (≈ 44.6 µM) | 16 (≈ 44.6 µM)
3 | CCCCOc1nc(N)c2ncn(Cc3c(F)ccc(C)c3F)c2n1 | 9.8 | 27 | > 400 | 50 (≈ 17.4 µg/mL) | 16 (≈ 46.1 µM) | 16 (≈ 46.1 µM) | 16 (≈ 46.1 µM)
4 | CCCCSc1nc(N)c2ncn(Cc3c(F)ccc(Cl)c3F)c2n1 | 2.2 | 2.6 | > 400 | 25 (≈ 9.6 µg/mL) | 16 (≈ 41.7 µM) | 16 (≈ 41.7 µM) | 16 (≈ 41.7 µM)
5 | CCCCSc1ncc2ncn(Cc3c(F)ccc(Cl)c3F)c2n1 | 1 | 1.8 | > 400 | 50 (≈ 18.4 µg/mL) | 16 (≈ 43.4 µM) | 16 (≈ 43.4 µM) | 16 (≈ 43.4 µM)
6 | CCCCOc1nc(NCCN2CCOCC2)c2ncn(Cc3c(F)cccc3F)c2n1 | – | 5.5 | > 400 | 200 (≈ 89.3 µg/mL) | 16 (≈ 35.8 µM) | 16 (≈ 35.8 µM) | 16 (≈ 35.8 µM)
7 | CCCCOc1nc(NCc2ccccc2)c2ncn(Cc3c(F)ccc(C)c3F)c2n1 | > 400 | > 400 | > 400 | 3.1 (≈ 1.36 µg/mL) | 16 (≈ 36.6 µM) | 16 (≈ 36.6 µM) | 16 (≈ 36.6 µM)
8 | CCCCNc1nc(N)c2ncn(Cc3c(F)cccc3F)c2n1 | 26.1 | 42.5 | > 400 | 100 (≈ 33.2 µg/mL) | 16 (≈ 48.1 µM) | 16 (≈ 48.1 µM) | 16 (≈ 48.1 µM)
9 | CC(=O)NC(C)Oc1nc(N)c2ncn(Cc3c(F)ccc(C)c3F)c2n1 (stereo not drawn) | 167 | > 400 | > 400 | 100 (≈ 37.6 µg/mL) | 16 (≈ 42.5 µM) | 16 (≈ 42.5 µM) | 16 (≈ 42.5 µM)
10 | CCCCOc1nc(N)c2[nH]c(=O)n(Cc3c(F)cccc3F)c2n1 | 38.1 | 97.8 | > 400 | 200 (≈ 69.9 µg/mL) | 16 (≈ 45.8 µM) | 16 (≈ 45.8 µM) | 16 (≈ 45.8 µM)
11 | CCCCOc1nc(NCc2cccnc2)c2ncn(Cc3c(F)ccc(Cl)c3F)c2n1 | 2 | 2.7 | > 400 | 18 (≈ 8.26 µg/mL) | 16 (≈ 34.9 µM) | 16 (≈ 34.9 µM) | 16 (≈ 34.9 µM)
12 | CCC(Oc1nc(N)c2ncn(Cc3c(F)ccc(C)c3F)c2n1)C(F)(F)C(F)(F)F (stereo not drawn) | 4.3 | 4.4 | > 400 | 25 (≈ 11.3 µg/mL) | 16 (≈ 35.4 µM) | 16 (≈ 35.4 µM) | 16 (≈ 35.4 µM)
13 | CCCCSc1nc(N)c2ncn(Cc3c(F)ccc(C)c3F)c2n1 | 5.4 | 6.5 | > 400 | 25 (≈ 9.09 µg/mL) | 16 (≈ 44 µM) | 16 (≈ 44 µM) | 16 (≈ 44 µM)
14 | CCCCSc1nc(N)c2nnn(Cc3c(F)cccc3F)c2n1 | 4.3 | 6.2 | > 400 | 50 (≈ 17.5 µg/mL) | 16 (≈ 45.7 µM) | 16 (≈ 45.7 µM) | 16 (≈ 45.7 µM)
15 | CCCCSc1nc(N)c2ncn(Cc3c(F)cccc3F)c2n1 | 4.1 | 6 | > 400 | 50 (≈ 17.5 µg/mL) | 16 (≈ 45.8 µM) | 16 (≈ 45.8 µM) | 16 (≈ 45.8 µM)
16 | CCCCOc1nc(NC)c2ncn(Cc3c(F)cccc3F)c2n1 | 5.5 | 13.9 | > 400 | 100 (≈ 34.7 µg/mL) | 16 (≈ 46.1 µM) | 16 (≈ 46.1 µM) | 16 (≈ 46.1 µM)
17 | CCCCSc1nc2c(ncn2Cc2c(F)ccc(C)c2F)c(=O)[nH]1 | 11.5 | 3.75 | > 400 | 100 (≈ 36.4 µg/mL) | 16 (≈ 43.9 µM) | 16 (≈ 43.9 µM) | 16 (≈ 43.9 µM)

Source: ChEMBL document CHEMBL1155839, “Exploring 9-benzyl purines as inhibitors of glutamate racemase (MurI) in Gram-positive bacteria” (Bioorg Med Chem Lett, 2008)
